Measured values reported in patent publication US10604527B2, “Pyrazine compounds for the treatment of hepatitis B infection” (Hoffmann-La Roche Inc., priority 2016, dated 2020).

The compounds below were run on HBV (assay: HBV inhibition assay in HepG2.2.15 cells (extracellular HBV DNA by qPCR)). Details: Hepatitis B virus, 120 h, extracellular HBV DNA in culture supernatant by qPCR, five days after compound treatment.
Type: cell-based
Method: HepG2.2.15 is a stably-transfected cell line containing the HBV genome. It is derived from the hepatoblastoma cell line Hep G2 (American Type Culture Collection, ATCC® HB-8065™) by the published procedures described in reference: M A Selles et al. Proc. Natl. Acad. Sci. USA 1987, 84, 1005-1009. The cell line was maintained in Dulbecco's modified Eagle's medium (DMEM)-F12 medium supplemented with 10% fetal bovine serum, 20 mM L-glutamine, 0.1 mM NEAA, 50 U/mL penicillin, 50 μg/mL streptomycin, and 0.3 mg/mL of G418.
HepG2.2.15 cells were seeded into 96-well plates at a density of 3×10^4 cells per well in 100 μL DMEM/F12 media (Life Science, Cat. #: 11320-033) supplemented with 2.5% fetal bovine serum, 20 mM L-glutamine, 0.1 mM NEAA, 50 U/mL penicillin, 50 U/mL streptomycin and cultured overnight at 37° C. The test compounds were serially half-log diluted in DMSO, then diluted 100 times in culture media. 100 μL diluted solution of tested compounds were added into the plates to reach 0.5% final concentration of DMSO in every well. Five days after compound treatment, culture supernatant was collected for further analysis.
For quantitative PCR detection of extracellular HBV DNA, culture supernatant was processed by 500 μg/mL Proteinase K (Sigma, Cat. #: P2308) digestion at 50° C. for 1 hour. After heat inactivation of the enzyme at 95° C. for 15 minutes, the samples were subjected to HBV DNA quantification by qPCR. The effective compound concentration at which HBV replication inhibited by 50% (EC50) was determined.
C[C@H]1Cn2ncc(OC3CCN(S(C)(=O)=O)CC3)c2CN1C(=O)Nc1ccc(F)c(Cl)c1 [Example 6, (6S)-N-(3-chloro-4-fluoro-phenyl)-6-methyl-3-[(1-methylsulfonyl-4-piperidyl)oxy]-6,7-dihydro-4H-pyrazolo[1,5-a]pyrazine-5-carboxamide] showed an EC50 of 310 nM. With CC1Cn2ncc(S(=O)(=O)C3CCOC3)c2CN1C(=O)Nc1ccc(F)c(Cl)c1 (centres unmarked) [Example 10, N-(3-chloro-4-fluoro-phenyl)-6-methyl-3-tetrahydrofuran-3-ylsulfonyl-6,7-dihydro-4H-pyrazolo[1,5-a]pyrazine-5-carboxamide] the EC50 was 32 nM. In the case of C[C@H]1Cn2ncc(S(=O)(=O)N(C)C)c2CN1C(=O)Nc1ccc(F)c(Cl)c1 [Example 24, (6S)-N-(3-chloro-4-fluoro-phenyl)-3-(dimethylsulfamoyl)-6-methyl-6,7-dihydro-4H-pyrazolo[1,5-a]pyrazine-5-carboxamide], the EC50 is reported as 142 nM. For C[C@H]1Cn2ncc(Oc3ncccn3)c2CN1C(=O)Nc1cc(F)c(F)c(F)c1 [Example 8, (6S)-6-methyl-3-pyrimidin-2-yloxy-N-(3,4,5-trifluorophenyl)-6,7-dihydro-4H-pyrazolo[1,5-a]pyrazine-5-carboxamide], the EC50 was 713 nM. In the case of C[C@H]1Cn2ncc(S(=O)(=O)C3CC3)c2CN1C(=O)Nc1cc(F)c(F)c(F)c1 [Example 22, (6S)-3-cyclopropylsulfonyl-6-methyl-N-(3,4,5-trifluorophenyl)-6,7-dihydro-4H-pyrazolo[1,5-a]pyrazine-5-carboxamide], the EC50 is reported as 78 nM. In the case of CC(C)CS(=O)(=O)c1cnn2c1CN(C(=O)Nc1ccc(F)c(Cl)c1)C(C)C2 (centres unmarked) [Example 13, N-(3-chloro-4-fluoro-phenyl)-3-isobutylsulfonyl-6-methyl-6,7-dihydro-4H-pyrazolo[1,5-a]pyrazine-5-carboxamide], the EC50 is reported as 24 nM. CC(C)Oc1cnn2c1CN(C(=O)Nc1ccc(F)c(Cl)c1)C(C)C2 (centres unmarked) [Example 1, N-(3-chloro-4-fluoro-phenyl)-3-isopropoxy-6-methyl-6,7-dihydro-4H-pyrazolo[1,5-a]pyrazine-5-carboxamide] gave an EC50 of 18 nM. For C[C@H]1Cn2ncc(S(=O)(=O)N3CC[C@@H](O)C3)c2CN1C(=O)Nc1cc(F)c(F)c(F)c1 [Example 29, (6S)-3-[(3R)-3-hydroxypyrrolidin-1-yl]sulfonyl-6-methyl-N-(3,4,5-trifluorophenyl)-6,7-dihydro-4H-pyrazolol[1,5-a]pyrazine-5-carboxamide], the EC50 was 146 nM. C[C@H]1Cn2ncc(S(=O)(=O)N3CC(F)(F)C3)c2CN1C(=O)Nc1cc(F)c(F)c(F)c1 [Example 31, (6S)-3-(3,3-difluoroazetidin-1-yl)sulfonyl-6-methyl-N-(3,4,5-trifluorophenyl)-6,7-dihydro-4H-pyrazolo[1,5-a]pyrazine-5-carboxamide] showed an EC50 of 22 nM. For CC(C)S(=O)(=O)c1cnn2c1CN(C(=O)Nc1cc(F)c(F)c(F)c1)[C@@H](C)C2 [Example 20, (6S)-3-isopropylsulfonyl-6-methyl-N-(3,4,5-trifluorophenyl)-6,7-dihydro-4H-pyrazolo[1,5-a]pyrazine-5-carboxamide], the EC50 was 21 nM. Work on CC(C)S(=O)(=O)c1cnn2c1CN(C(=O)Nc1ccnc(C(F)F)c1)[C@@H](C)C2 [Example 21, (6S)-N-[2-(difluoromethyl)-4-pyridyl]-3-isopropylsulfonyl-6-methyl-6,7-dihydro-4H-pyrazolo[1,5-a]pyrazine-5-carboxamide] yielded an EC50 of 272 nM. In the case of C[C@H]1Cn2ncc(S(=O)(=O)C3CCCC3)c2CN1C(=O)Nc1ccnc(Cl)c1 [Example 19, (6S)-N-(2-chloro-4-pyridyl)-3-cyclopentylsulfonyl-6-methyl-6,7-dihydro-4H-pyrazolo[1,5-a]pyrazine-5-carboxamide], the EC50 is reported as 134 nM. C[C@H]1Cn2ncc(N(C)C(=O)OCc3ccccc3)c2CN1C(=O)Nc1cc(F)c(F)c(F)c1 [Example 37, Benzyl N-methyl-N-[(6S)-6-methyl-5-[(3,4,5-trifluorophenyl)carbamoyl]-6,7-dihydro-4H-pyrazolo[1,5-a]pyrazin-3-yl]carbamate] was tested, and the EC50 was 475 nM. For C[C@H]1Cn2ncc(S(=O)(=O)N3CCC(F)(F)C3)c2CN1C(=O)Nc1cc(F)c(F)c(F)c1 [Example 28, (6S)-3-(3,3-difluoropyrrolidin-1-yl)sulfonyl-6-methyl-N-(3,4,5-trifluorophenyl)-6,7-dihydro-4H-pyrazolo[1,5-a]pyrazine-5-carboxamide], the EC50 was 168 nM. C[C@H]1Cn2ncc(Oc3ccccn3)c2CN1C(=O)Nc1cc(F)c(F)c(F)c1 [Example 7, (6S)-6-methyl-3-(2-pyridyloxy)-N-(3,4,5-trifluorophenyl)-6,7-dihydro-4H-pyrazolo[1,5-a]pyrazine-5-carboxamide] was tested, and the EC50 was 984 nM. Work on CC1Cn2ncc(OC3CCCC3)c2CN1C(=O)Nc1ccc(F)c(Cl)c1 (centres unmarked) [Example 2, N-(3-chloro-4-fluoro-phenyl)-3-(cyclopentoxy)-6-methyl-6,7-dihydro-4H-pyrazolo[1,5-a]pyrazine-5-carboxamide] yielded an EC50 of 8 nM. Compound C[C@H]1Cn2ncc(S(=O)(=O)N3CC[C@H](O)C3)c2CN1C(=O)Nc1cc(F)c(F)c(F)c1 [Example 33, (6S)-3-[(3S)-3-hydroxypyrrolidin-1-yl]sulfonyl-6-methyl-N-(3,4,5-trifluorophenyl)-6,7-dihydro-4H-pyrazolo[1,5-a]pyrazine-5-carboxamide] has an EC50 of 145 nM. Work on CC1Cn2ncc(S(=O)(=O)C(C)C)c2CN1C(=O)Nc1ccc(F)c(Cl)c1 (centres unmarked) [Example 12, N-(3-chloro-4-fluoro-phenyl)-3-isopropylsulfonyl-6-methyl-6,7-dihydro-4H-pyrazolo[1,5-a]pyrazine-5-carboxamide] yielded an EC50 of 11 nM. Compound CC(=O)N(C)c1cnn2c1CN(C(=O)Nc1cc(F)c(F)c(F)c1)[C@@H](C)C2 [Example 38, (6S)-3-[acetyl(methyl)amino]-6-methyl-N-(3,4,5-trifluorophenyl)-6,7-dihydro-4H-pyrazolo[1,5-a]pyrazine-5-carboxamide] has an EC50 of 457 nM. With C[C@H]1Cn2ncc(S(=O)(=O)N3CCCC3)c2CN1C(=O)Nc1ccc(F)c(Cl)c1 [Example 23, (6S)-N-(3-chloro-4-fluoro-phenyl)-6-methyl-3-pyrrolidin-1-ylsulfonyl-6,7-dihydro-4H-pyrazolo[1,5-a]pyrazine-5-carboxamide] the EC50 was 78 nM. Compound C[C@H]1Cn2ncc(OC3CCOCC3)c2CN1C(=O)Nc1ccc(F)c(Cl)c1 [Example 4, (6S)-N-(3-chloro-4-fluoro-phenyl)-6-methyl-3-tetrahydropyran-4-yloxy-6,7-dihydro-4H-pyrazolo[1,5-a]pyrazine-5-carboxamide] has an EC50 of 107 nM. Work on C[C@H]1Cn2ncc(OC3CCOC3)c2CN1C(=O)Nc1ccc(F)c(Cl)c1 (stereo partly drawn) [Example 3, (6S)-N-(3-chloro-4-fluoro-phenyl)-6-methyl-3-tetrahydrofuran-3-yloxy-6,7-dihydro-4H-pyrazolo[1,5-a]pyrazine-5-carboxamide] yielded an EC50 of 151 nM. C[C@H]1Cn2ncc(S(=O)(=O)NC(C)(C)CO)c2CN1C(=O)Nc1cc(F)c(F)c(F)c1 [Example 27, (6S)-3-[(2-hydroxy-1,1-dimethyl-ethyl)sulfamoyl]-6-methyl-N-(3,4,5-trifluorophenyl)-6,7-dihydro-4H-pyrazolo[1,5-a]pyrazine-5-carboxamide] was tested, and the EC50 was 156 nM. C[C@H]1Cn2ncc(S(=O)(=O)C3CCC(O)C3)c2CN1C(=O)Nc1cc(F)c(F)c(F)c1 (stereo partly drawn) [Example 34, (6S)-3-(3-hydroxycyclopentyl)sulfonyl-6-methyl-N-(3,4,5-trifluorophenyl)-6,7-dihydro-4H-pyrazolo[1,5-a]pyrazine-5-carboxamide] was tested, and the EC50 was 96 nM. With CC(C)NS(=O)(=O)c1cnn2c1CN(C(=O)Nc1ccc(F)c(Cl)c1)[C@@H](C)C2 [Example 25, (6S)-N-(3-chloro-4-fluoro-phenyl)-3-(isopropylsulfamoyl)-6-methyl-6,7-dihydro-4H-pyrazolo[1,5-a]pyrazine-5-carboxamide] the EC50 was 82 nM. Compound C[C@H]1Cn2ncc(S(=O)(=O)C3CCOC3)c2CN1C(=O)Nc1ccc(F)c(Cl)c1 (stereo partly drawn) [Example 14, (6S)-N-(3-chloro-4-fluoro-phenyl)-6-methyl-3-tetrahydrofuran-3-ylsulfonyl-6,7-dihydro-4H-pyrazolo[1,5-a]pyrazine-5-carboxamide] has an EC50 of 55 nM. Work on CC(C)S(=O)(=O)c1cnn2c1CN(C(=O)Nc1ccnc(Cl)c1)[C@@H](C)C2 [Example 18, (6S)-N-(2-chloro-4-pyridyl)-3-isopropylsulfonyl-6-methyl-6,7-dihydro-4H-pyrazolo[1,5-a]pyrazine-5-carboxamide] yielded an EC50 of 471 nM. C[C@H]1Cn2ncc(S(=O)(=O)N3CCOCC3)c2CN1C(=O)Nc1cc(F)c(F)c(F)c1 [Example 32, (6S)-6-methyl-3-morpholinosulfonyl-N-(3,4,5-trifluorophenyl)-6,7-dihydro-4H-pyrazolo[1,5-a]pyrazine-5-carboxamide] gave an EC50 of 179 nM. Compound C[C@H]1Cn2ncc(Oc3ccc(F)cn3)c2CN1C(=O)Nc1cc(F)c(F)c(F)c1 [Example 9, (6S)-3-[(5-fluoro-2-pyridyl)oxy]-6-methyl-N-(3,4,5-trifluorophenyl)-6,7-dihydro-4H-pyrazolo[1,5-a]pyrazine-5-carboxamide] has an EC50 of 240 nM.
